Each block holds one compound with its values, some of them ahead of it.
Experiments:
canine CCR4 = biological target: T1, canine CCR4 (Canis lupus familiaris, UniProt Q8MJW8); assay: Chemotaxis assay with a membrane chamber, canine lymphocyte cell line CL-1 and canine recombinant CCL17; assay type: cell-based; conditions: canine lymphocyte cell line CL-1; FIG. 8
T1 construct: Using a canine lymphocyte cell line (CL-1) expressing canine recombinant CCL17 and CCR4, a chemotaxis assay was carried out; endogenous in cells; host or cells: CL-1 canine lymphocyte cell line
T1 sequence (Q8MJW8 1-360): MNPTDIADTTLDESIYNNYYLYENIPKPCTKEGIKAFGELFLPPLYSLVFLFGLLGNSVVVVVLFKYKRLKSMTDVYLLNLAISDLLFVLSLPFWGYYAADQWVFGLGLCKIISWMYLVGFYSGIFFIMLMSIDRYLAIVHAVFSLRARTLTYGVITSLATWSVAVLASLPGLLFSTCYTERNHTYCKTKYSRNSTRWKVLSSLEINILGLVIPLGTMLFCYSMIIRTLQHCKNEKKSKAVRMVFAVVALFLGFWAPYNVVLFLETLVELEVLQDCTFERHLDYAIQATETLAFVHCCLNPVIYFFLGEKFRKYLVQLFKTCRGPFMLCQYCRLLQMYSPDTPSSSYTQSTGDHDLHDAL
Description: Thus, the cross-reactivity of these inhibitors with canine CCR4 was studied. Using a canine lymphocyte cell line (CL-1) expressing canine recombinant CCL17 and CCR4, a chemotaxis assay was carried out with a membrane chamber.

prostate cancer = assay: Clinical test on dogs, antitumor effects; assay type: in vivo, dog; conditions: 2/4 cases, 1 mg/kg intravenous every three weeks; FIG. 16
[1] = system: canine transitional cell carcinoma cell line; assay: Cancer-bearing mouse models, NOG mice transplanted with canine tumor cells; assay type: in vivo
Description: A comparison was made among the groups, in terms of the tumor volume of the transplanted transitional cell carcinoma cells. […] The tumor tissues were collected from each group at the end point, and the collected tumor tissues were subjected to a histopathologic examination involving H & E (Hematoxylin-Eosin) staining. […] In FIG. 11, the whitish portion in the black-and-white photograph indicates a focus of necrosis. […] Furthermore, intratumoral infiltration of Tregs was evaluated by performing immunohistochemistry on Foxp3. […] In FIG. 12, the portions seen as black points in the black-and-white photograph are sites in which Foxp3-positive Tregs are present.

[2] = system: CCR4-positive T cells in blood; assay: Single intravenous administration of anti-human CCR4 antibody to healthy dog; assay type: in vivo
Excerpt: Furthermore, the effects were sustained for 3 to 4 weeks. […] These side effects were improved 1 week after the administration, without any treatments.

[3] = system: transitional cell carcinoma; assay: Clinical test on dogs, antitumor effects; assay type: in vivo, dog; conditions: 5/11 cases, 1 mg/kg intravenous every three weeks; FIG. 15
[4] = system: CCR4-positive Tregs in the peripheral blood; assay: Clinical test on dogs with various tumors, all 17 cases; assay type: in vivo, dog; conditions: 1 mg/kg intravenous every three weeks
Excerpt: In the case of prostate cancer, 2/4 cases (50%) had partial response, and 2/4 cases (50%) were stable (FIG. 16). In the case of breast cancer, 1/2 cases (50%) had partial response, and 1/2 cases (50%) was stable (FIG. 17). […] However, all of the side effects were mild.

[5] = system: canine transitional cell carcinoma; assay: Clinical test of Mogamulizumab combined with Piroxicam versus Piroxicam alone
Description: To the control group, Piroxicam alone was administered (14 cases). The number of CCR4-positive Tregs in the peripheral blood and a tumor size were evaluated before and after the administration.
In the figure, the terms “PR,” “SD,” and “PD” indicate definitions regarding a change in the size of a tumor in the midcourse of a treatment according to RECIST (Response Evaluation Criteria in Solid Tumors), which are evaluation criteria regarding therapeutic effects on solid cancers. Specifically, PR (Partial Response) indicates a state in which a sum of the sizes of tumors has been reduced by 30% or more, SD (Stable Disease) indicates a state in which the size of a tumor has not changed, and PD (Progressive Disease) indicates a state in which a sum of the sizes of tumors has been increased by 20% or more and the size has been increased by 5 mm or more as an absolute value, or a state in which a new lesion has appeared.

breast cancer = assay: Clinical test on dogs, antitumor effects; assay type: in vivo, dog; conditions: 1/2 cases, 1 mg/kg intravenous every three weeks; FIG. 17

migration of CL-1 by the recombinant CCL17 (canine CCR4): significantly suppressed
Compound: COc1cc2nc(N3CCC(N4CCCCC4)CC3)nc(NC3CCCCCC3)c2cc1OC.Cl.Cl [C-021, 2-[1,4′-bipiperidin]-1′-yl-N-cycloheptyl-6,7-dimethoxy-4-quinazolinamine dihydrochloride]

Compound: Mogamulizumab: anti-human CCR4 antibody (Kyowa Kirin Co., Ltd.), a neutralizing antibody
cases with partial response (prostate cancer): 50% | intratumoral infiltration of Tregs (Foxp3 immunohistochemistry) ([1]; combined use group of canine PBMC and Mogamulizumab versus canine PBMC group, FIG. 12, 13): significantly suppressed | focus of necrosis in tumor tissue (H & E staining) ([1]; combined use group of canine PBMC and Mogamulizumab, compared with other groups, FIG. 11): an expansion of the focus of necrosis was observed | growth of the tumor (tumor volume) ([1]; combined use group of canine PBMC and Mogamulizumab, FIG. 10): significantly suppressed | side effects ([2]; 1 mg/kg intravenous): nausea, a slight increase in ALP, and a slight increase in CRP | time after administration at which side effects improved without any treatments ([2]; 1 mg/kg intravenous): 1 week | number of CCR4-positive T cells in blood ([2]; 1 mg/kg intravenous, flow cytometry, FIG. 9): reduced by half | side effects ([2]; 0.01 to 0.1 mg/kg intravenous): no side effects were found | cases with partial response [3]: 45.5% | side effect: facial edema and/or redness, cases ([4]; 1/17 cases): 5.9% | side effect: slight increase in ALP, cases ([4]; 3/17 cases): 17.6% | side effect: vomiting, cases ([4]; 3/17 cases): 17.6% | severity of all of the side effects ([4]; 17 cases): mild | number of CCR4-positive Tregs in peripheral blood ([4]; all cases, FIG. 14): drastically reduced | migration of CL-1 by the recombinant CCL17 (canine CCR4): significantly suppressed | number of CCR4-positive Tregs in the peripheral blood ([5]; after Mogamulizumab 1 mg/kg IV every three weeks plus Piroxicam 0.3 mg/kg PO daily, FIG. 18, 19): reduced | response percentage according to RECIST ([5]; combined use group with Mogamulizumab versus single administration group of Piroxicam, FIG. 22, 23): higher response percentage | progression-free survival periods (PFS) ([5]; combined use group with Mogamulizumab versus single administration group of Piroxicam, FIG. 24): better improvement | overall survival periods (OS) ([5]; combined use group with Mogamulizumab versus single administration group of Piroxicam, FIG. 25): better improvement | tumor (mass) size / tumor volume ([5]; combined use group with Mogamulizumab, FIG. 20, 21): reduced | cases with partial response (breast cancer): 50%
